{"source": "patent US7825104B2", "about": "“Methods and compositions for treating fungal infections” (Ramot at Tel Aviv University Ltd., priority 2001, dated 2010)", "key": {"Candida parapsilosis": {"test_system": "Candida parapsilosis", "assay": "in vitro fungicidal/inhibitory effect on Candida parapsilosis", "format": "cell-based"}, "[1]": {"details": "cited from earlier work"}, "[2]": {"details": "ORL-RAT; cited from earlier work"}, "Bacilus megaterium": {"test_system": "Bacilus megaterium", "assay": "in vitro effect on Bacillus megaterium (control, Cyt P-450 containing bacteria)", "format": "cell-based", "details": "solution of about 5-10 mg/ml"}, "Trichophyton rubrum": {"test_system": "Trichophyton rubrum", "assay": "in vitro fungicidal/fungistatic test on T. rubrum cultures", "format": "cell-based", "details": "concentration range of 5-10 mg/ml tested", "method": "An in vitro test was designed for testing the fungicidal or fungistatic activity of PBA and its water-soluble derivatives. Cultures of T. rubrum were grown on 100 microliters SDB agar in a standard 96 well plate. Following an initial growth period of about 24 hours, each well was treated with 50-100 microliters of the reagent tested. Following an appropriate incubation period with or without washing, residual viability was estimated from comparison with appropriate controls, followed by secondary verification of viability tests by transfer of a part of the treated culture into a fresh well for optional recovery and growth. […] The photograph was taken four days after treatment."}}, "data": [{"smiles": "OB(O)c1ccccc1", "note": "[PBA, Phenyl boronic acid]", "values": [{"measurement": "effect on C. parapsylosis", "setting": "Candida parapsilosis; 5 mg/ml", "result": "fungistatic"}, {"measurement": "effect on C. parapsylosis", "setting": "Candida parapsilosis; 10 mg/ml", "result": "fungicidal"}, {"measurement": "solubility in water", "setting": "[1]", "result": "reasonably soluble in water"}, {"measurement": "LD50", "setting": "[2]", "result": 740, "unit": "mg/kg"}, {"measurement": "activity against Bacillus megaterium", "setting": "Bacilus megaterium", "result": "antibiotic activity"}, {"measurement": "effect on T. rubrum", "setting": "Trichophyton rubrum", "result": "fungicidal"}]}]}
